This note sets out measurements from US20230357179A1, “RAF KINASE INHIBITORS AND METHODS OF USE THEREOF” (Deciphera Pharmaceuticals, LLC, priority 2021, published 2023).

T2 sequence (P15056 416-766 V600E): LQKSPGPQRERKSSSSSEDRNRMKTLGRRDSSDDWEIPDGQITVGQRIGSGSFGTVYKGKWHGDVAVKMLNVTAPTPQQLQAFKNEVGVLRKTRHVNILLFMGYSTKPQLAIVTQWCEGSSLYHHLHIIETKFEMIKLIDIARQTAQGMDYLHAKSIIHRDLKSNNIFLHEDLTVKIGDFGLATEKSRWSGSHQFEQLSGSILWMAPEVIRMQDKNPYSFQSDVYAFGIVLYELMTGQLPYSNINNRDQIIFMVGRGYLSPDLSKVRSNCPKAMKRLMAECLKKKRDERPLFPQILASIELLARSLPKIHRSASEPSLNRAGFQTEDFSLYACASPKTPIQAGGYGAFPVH
T1 sequence (P15056 416-766): as the sequence (P15056 416-766 V600E) above, with E185V counted along it

One assay concerns the target T1, B-Raf kinase (Homo sapiens, UniProt P15056).
T1 construct: GST (N); purchased Sigma
The assay can be described thus: Biochemical assay for B-Raf.2 (coupled pyruvate kinase/lactate dehydrogenase). The settings on record: read-out: BRAF.2 IC50. The method, then:
Biochemical Assay for B-Raf.2
Activity of B-Raf kinase (SEQ. ID NO: 2) was determined spectroscopically using a coupled pyruvate kinase/lactate dehydrogenase assay that continuously monitors the ATP hydrolysis-dependent oxidation of NADH (e.g., Schindler et al., Science, 2000, 289, 1938-1942). Assays were conducted in 384-well plates (25 μL final volume) using 2 nM B-Raf (Sigma), 1.5 units pyruvate kinase, 2.1 units lactate dehydrogenase, 1 mM phosphoenol pyruvate, 0.7 mM NADH, 50 nM MEK (SignalChem), and 1 mM ATP in assay buffer (100 mM Tris, pH 7.5, 15 mM MgCl2, 0.5 mM DTT, 0.1% octyl-glucoside, 0.002% (w/v) BSA, and 0.002% Triton X-100). Inhibition of B-Raf was measured by adding serial diluted test compound (final assay concentration of 1% DMSO). A decrease in absorption at 340 nm was monitored hourly for 4 h at 30° C. on a multi-mode microplate reader (BioTek). The reaction rate was calculated using the 2 to 3 h time frame. The reaction rate at each concentration of compound was converted to percent inhibition using controls (i.e., reaction with no test compound and reaction with a known inhibitor) and IC50 values were calculated by fitting a four-parameter sigmoidal curve to the data using Prism (GraphPad software).
With `CNC(=O)c1cc(-c2cc(-c3cc(NC(=O)N4CC[C@H](C(F)(F)F)C4)ccc3C)ccn2)ccn1` [Example 215], the IC50 fell in the range of 0.1 to 0.5 µM.
Still for that read-out and setting: next, `CNC(=O)c1cc(-c2cncc(-c3cc(NC(=O)N4CC[C@H](C(F)(F)F)C4)ccc3C)c2)ncn1` [Example 220]: 0.1 to 0.5 µM; `COC(=O)Nc1cc(-c2cncc(-c3cc(NC(=O)N4CC[C@H](C(F)(F)F)C4)ccc3C)c2)ncn1` [Example 224]: not above 0.1 µM; `CNC(=O)c1cc(-c2cc(-c3cc(NC(=O)N4CC[C@H](C(C)C)C4)ccc3C)ccn2)ccn1` [Example 225]: 0.1 to 0.5 µM.
On the same count and under the same terms, the same measure for `CNC(=O)c1cc(-c2cncc(-c3cc(NC(=O)N4CC[C@H](C(C)C)C4)ccc3C)c2)ncn1` [Example 226]: 0.5 to 1 µM; for `Cc1ccc(NC(=O)N2CC[C@H](C)C2)cc1-c1cncc(-c2cc(NC(=O)C3CC3)ncn2)c1` [Example 227]: not above 0.1 µM.
The same measure, in the same setting: next, `CNC(=O)c1cc(-c2cncc(-c3cc(NC(=O)N4CC[C@H](C(F)(F)F)C4)ccc3C)c2)ccn1` [Example 228]: 0.1 to 0.5 µM; `CNC(=O)c1cc(-c2cncc(-c3cc(NC(=O)N4CC[C@H](C(C)C)C4)ccc3C)c2)ccn1` [Example 229]: 0.1 to 0.5 µM.

The next assay has as its target T1, B-Raf kinase. Nature of the assay: Biochemical assay for B-Raf.1 (coupled pyruvate kinase/lactate dehydrogenase). To be noted: read-out: BRAF.1 IC50. In short, it runs like this:
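NADH oxidation followed at 340 nm in a pyruvate kinase/lactate dehydrogenase-coupled assay with 0.13 nM B-Raf, 30.1 nM MEK substrate, 1 mM ATP, pH 7.5 Tris buffer, 1% DMSO. Monitored 6 h at 30 °C; rate taken from 4–5 h. IC50 from four-parameter sigmoidal fit.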
As for `COC(=O)Nc1cc(-c2cccc(-c3cc(NC(=O)NCCC(C)(C)OC)c(F)cc3C)c2)ccn1` [Example 85], the 50% inhibitory concentration (IC50) is not above 0.1 µM.
As to `Cc1cc(F)c(NC(=O)NCCC2(C)CC2)cc1-c1cc(OCCO)nc(-c2ccnc3[nH]ncc23)c1` [Example 87], the IC50 was not above 0.1 µM.
On the same count and under the same terms, the same measure for `Cc1cc(F)c(NC(=O)N[C@@H]2CC[C@H](F)C2)cc1-c1cc(OCCO)nc(-c2ccnc3[nH]ncc23)c1` [Example 88]: 0.5 to 1 µM; for `Cc1cc(F)c(NC(=O)NCC[C@@H]2CCO2)cc1-c1cc(OCCO)nc(-c2ccnc3[nH]ncc23)c1` [Example 89]: more than 1 µM.
Same read-out and setting: next, `COC(C)(C)CCNC(=O)Nc1cc(-c2cc(OCCO)nc(-c3ccnc4[nH]ccc34)c2)c(C)cc1F` [Example 90]: not above 0.1 µM; `COC(C)(C)CCNC(=O)Nc1cc(-c2cc(OCCO)nc(-c3ccnc4[nH]ncc34)c2)c(C)cc1F` [Example 91]: not above 0.1 µM; `Cc1cc(F)c(NC(=O)N2CCC(C)(C#N)CC2)cc1-c1cc(OCCO)nc(-c2ccnc3[nH]ncc23)c1` [Example 92]: 0.5 to 1 µM.

A further assay concerns H2405 cells. The assay can be described thus: H2405 cell proliferation assay (1), resazurin, 96-well. In kind it is cell-based. To be noted: Homo sapiens, NCI-H2405, inhibition of cell proliferation. The method, boiled down: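 This is a resazurin viability readout (excitation 540 nm, emission 600 nm) taken 5-6 h after adding 440 μM resazurin solution, giving IC50 values.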
Regarding `COC(=O)Nc1cc(-c2cccc(-c3cc(NC(=O)NCCC(C)(C)OC)c(F)cc3C)c2)ccn1` [Example 85], the IC50 fell in the range of 0.1 to 0.5 µM.
On the same count and under the same terms, next, `Cc1cc(F)c(NC(=O)NCCC2(C)CC2)cc1-c1cc(OCCO)nc(-c2ccnc3[nH]ncc23)c1` [Example 87]: 0.1 to 0.5 µM.
In the case of `Cc1cc(F)c(NC(=O)N[C@@H]2CC[C@H](F)C2)cc1-c1cc(OCCO)nc(-c2ccnc3[nH]ncc23)c1` [Example 88], the IC50 is 1 to 10 µM.
Take `Cc1cc(F)c(NC(=O)NCC[C@@H]2CCO2)cc1-c1cc(OCCO)nc(-c2ccnc3[nH]ncc23)c1` [Example 89]: the IC50 lay in the range of 1 to 10 µM.
As to `COC(C)(C)CCNC(=O)Nc1cc(-c2cc(OCCO)nc(-c3ccnc4[nH]ccc34)c2)c(C)cc1F` [Example 90], the concentration for half-maximal inhibition (IC50) lay within 0.5 to 1 µM.
Still for that read-out and setting: next, `COC(C)(C)CCNC(=O)Nc1cc(-c2cc(OCCO)nc(-c3ccnc4[nH]ncc34)c2)c(C)cc1F` [Example 91]: 0.1 to 0.5 µM; `Cc1cc(F)c(NC(=O)N2CCC(C)(C#N)CC2)cc1-c1cc(OCCO)nc(-c2ccnc3[nH]ncc23)c1` [Example 92]: 1 to 10 µM.
Same read-out and setting: next, `CNC(=O)c1cc(-c2cncc(-c3cc(NC(=O)N4CC[C@H](C(F)(F)F)C4)ccc3C)c2)ncn1` [Example 220]: 0.5 to 1 µM.
Same read-out and setting: next, `COC(=O)Nc1cc(-c2cncc(-c3cc(NC(=O)N4CC[C@H](C(F)(F)F)C4)ccc3C)c2)ncn1` [Example 224]: 0.1 to 0.5 µM; `CNC(=O)c1cc(-c2cc(-c3cc(NC(=O)N4CC[C@H](C(C)C)C4)ccc3C)ccn2)ccn1` [Example 225]: 0.1 to 0.5 µM; `CNC(=O)c1cc(-c2cncc(-c3cc(NC(=O)N4CC[C@H](C(C)C)C4)ccc3C)c2)ncn1` [Example 226]: 0.5 to 1 µM.

Another assay has as its target T2, B-Raf (V600E) kinase (Homo sapiens, UniProt P15056, V600E).
T2 construct: B-Raf (V600E) residues 416-766 with a; GST (N); purchased SignalChem
Nature of the assay: Biochemical assay for B-Raf (V600E).2 (coupled pyruvate kinase/lactate dehydrogenase). The settings on record: read-out: BRAF V600E.2 IC50. The method, then:
Biochemical Assay for B-Raf (V600E).2
Activity of B-Raf (V600E) (SEQ. ID NO: 4) kinase was determined spectroscopically using a coupled pyruvate kinase/lactate dehydrogenase assay that continuously monitors the ATP hydrolysis-dependent oxidation of NADH (e.g., Schindler et al., Science, 2000, 289, 1938-1942). Assays were conducted in 384-well plates (25 μL final volume) using 0.5 nM B-Raf (deCode), 1.5 units pyruvate kinase, 2.1 units lactate dehydrogenase, 1 mM phosphoenol pyruvate, 0.7 mM NADH, 100 nM MEK (SignalChem), and 1 mM ATP in assay buffer (100 mM Tris, pH 7.5, 15 mM MgCl2, 0.5 mM DTT, 0.1% octyl-glucoside, 0.002% (w/v) BSA, and 0.002% Triton X-100). Inhibition of B-Raf (V600E) was measured by adding serial diluted test compound (final assay concentration of 1% DMSO). A decrease in absorption at 340 nm was monitored hourly for 4 h at 30° C. on a multi-mode microplate reader (BioTek). The reaction rate was calculated using the 3 to 4 h time frame. The reaction rate at each concentration of compound was converted to percent inhibition using controls (i.e., reaction with no test compound and reaction with a known inhibitor) and IC50 values were calculated by fitting a four-parameter sigmoidal curve to the data using Prism (GraphPad software).
Turning to `CNC(=O)c1cc(-c2cc(-c3cc(NC(=O)N4CC[C@H](C(F)(F)F)C4)ccc3C)ccn2)ccn1` [Example 215], the IC50 fell in the range of 0.1 to 0.5 µM.
Turning to `CNC(=O)c1cc(-c2cncc(-c3cc(NC(=O)N4CC[C@H](C(F)(F)F)C4)ccc3C)c2)ncn1` [Example 220], the IC50 fell in the range of 0.1 to 0.5 µM.
Still for that read-out and setting: next, `COC(=O)Nc1cc(-c2cncc(-c3cc(NC(=O)N4CC[C@H](C(F)(F)F)C4)ccc3C)c2)ncn1` [Example 224]: not above 0.1 µM; `CNC(=O)c1cc(-c2cc(-c3cc(NC(=O)N4CC[C@H](C(C)C)C4)ccc3C)ccn2)ccn1` [Example 225]: not above 0.1 µM.
Consider `CNC(=O)c1cc(-c2cncc(-c3cc(NC(=O)N4CC[C@H](C(C)C)C4)ccc3C)c2)ncn1` [Example 226], for which the concentration for half-maximal inhibition (IC50) is not above 0.1 µM.
On the same count and under the same terms, next, `Cc1ccc(NC(=O)N2CC[C@H](C)C2)cc1-c1cncc(-c2cc(NC(=O)C3CC3)ncn2)c1` [Example 227]: not above 0.1 µM; `CNC(=O)c1cc(-c2cncc(-c3cc(NC(=O)N4CC[C@H](C(F)(F)F)C4)ccc3C)c2)ccn1` [Example 228]: not above 0.1 µM.
As for `CNC(=O)c1cc(-c2cncc(-c3cc(NC(=O)N4CC[C@H](C(C)C)C4)ccc3C)c2)ccn1` [Example 229], the IC50 was not above 0.1 µM.
